# Measured values as given in publication PMC8910920 (International Journal of Molecular Sciences, 2022).
# “Also recorded” adds a separate entry of the source.
# Columns and labels:
# [1] = target: T1, hCB2 (Homo sapiens, UniProt P34972); assay: Radioligand binding assay, CHO cells, hCB2
# T1 construct: host or cells: CHO
# Protocol: (§1) To define whether β–lactam derivative RGM8-51 could bind to CGRPR, CB2 and M3 receptors, in vitro binding assays were performed, using CHO cell lines transfected with these receptors. The degree of binding was determined by using specific radioligands for each receptor (Table 2, footnote).
# (§2) These studies were subcontracted to Eurofins-CEREP or Eurofins-PANLABS. Briefly, agonists and antagonist assays were performed in cell cultures overexpressing the corresponding channel (CHO: TRPV1 and TRPA1; HEK293: TRPV3 and ASIC3). In vitro pharmacology, cellular channel functional assays: the compound was prepared in assay buffer to the final concentration, 10 μM. […] The agonist assay was conducted on fluorimeter instruments where the test compound, vehicle controls, and reference agonist were added to the assay plate after a fluorescence baseline was established. […] For the antagonist assay, the compound was pre-incubated for five minutes at room temperature, and then challenged with the EC80 concentration of the reference agonist after establishment of a fluorescence baseline. […] Binding assay results are expressed as a percent of control specific binding. […] Aqueous solubility (μM) was determined by comparing the peak area of the principal peak in a calibration standard (200 μM) containing organic solvent (methanol/water, 60/40, v/v) with the peak area of the corresponding peak in a buffer sample. […]
# [2] = tested on: NTG-induced mechanical hypersensitivity in C57BL6 mice; assay: NTG-induced mechanical hypersensitivity, von Frey test; format: in vivo, mouse
# From the text: Administration of NTG intermittently produces a baseline hypersensitivity to mechanical stimulation, which can be measured by the von Frey test. The mechanical stimulus was applied at different times to obtain the time course of the effects produced after compound administration, and both male and female mice were used to investigate a possible sex dimorphism.
# C57BL6 mice (males and females, ≈25 g) (Envigo, Blackthorn, UK) were used for the study. All experiments were approved by the Institutional Animal and Ethical Committee of the Universidad Miguel Hernandez where experiments were conducted and they were in accordance with the guidelines of the Economic European Community and the Committee for Research and Ethical Issues of the International Association for the Study of Pain. All parts of the study concerning animal care were performed under the control of veterinarians. […] The 50% response threshold was calculated using the following formula:50% (g) threshold = (10^(Xf + kd))/10,000 where Xf is the value of the last von Frey filament applied; k is a correction factor based on pattern of responses (from the Dixon’s calibration table); d is the mean distance in log units between stimuli (here, 0.4).
# Von Frey threshold for each animal was calculated, according to the formula, and data analysis was performed by using GraphPad 6.0. […]
# [3] = target: T2, hM3 (Homo sapiens, UniProt P20309); assay: Radioligand binding assay, CHO cells, hM3; conditions: radioligand [3H]4-DMAP
# T2 construct: host or cells: CHO
# T2 sequence (P20309 whole entry): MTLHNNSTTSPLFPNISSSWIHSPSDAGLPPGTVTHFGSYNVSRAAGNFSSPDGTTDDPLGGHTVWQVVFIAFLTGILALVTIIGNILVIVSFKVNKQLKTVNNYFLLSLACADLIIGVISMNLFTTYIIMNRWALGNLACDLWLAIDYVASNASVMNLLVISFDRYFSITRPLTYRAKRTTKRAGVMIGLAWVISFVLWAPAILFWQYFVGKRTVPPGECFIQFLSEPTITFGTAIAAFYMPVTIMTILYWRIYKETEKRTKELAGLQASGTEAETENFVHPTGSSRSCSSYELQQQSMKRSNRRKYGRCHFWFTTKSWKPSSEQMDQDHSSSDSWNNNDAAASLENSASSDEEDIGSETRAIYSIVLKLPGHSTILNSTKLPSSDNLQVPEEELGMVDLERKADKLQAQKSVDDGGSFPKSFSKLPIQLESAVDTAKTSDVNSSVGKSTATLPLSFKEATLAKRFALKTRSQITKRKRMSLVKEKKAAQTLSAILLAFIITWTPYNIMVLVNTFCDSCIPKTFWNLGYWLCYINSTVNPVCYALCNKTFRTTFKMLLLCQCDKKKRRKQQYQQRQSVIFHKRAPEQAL
# Protocol: as §1, §2
# T1 sequence (P34972 whole entry): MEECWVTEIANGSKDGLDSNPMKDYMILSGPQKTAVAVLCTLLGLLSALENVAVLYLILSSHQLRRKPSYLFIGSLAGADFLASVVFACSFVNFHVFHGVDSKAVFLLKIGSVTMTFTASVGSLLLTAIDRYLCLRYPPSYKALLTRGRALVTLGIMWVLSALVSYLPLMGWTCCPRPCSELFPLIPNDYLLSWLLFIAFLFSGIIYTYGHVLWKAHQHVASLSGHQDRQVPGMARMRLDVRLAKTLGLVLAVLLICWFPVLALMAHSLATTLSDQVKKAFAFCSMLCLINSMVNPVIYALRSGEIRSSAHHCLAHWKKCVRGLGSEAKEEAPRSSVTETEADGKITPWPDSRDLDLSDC
compound,measurement,setting,value
"C[C@@H]1C(=O)N(C[C@H](Cc2ccccc2)N(Cc2ccccc2)Cc2ccccc2)[C@]1(Cc1ccccc1)C(=O)OC(C)(C)C [RGM8-51, 4(S)-Benzyl-3S-methyl-4-(tert-butoxy)carbonyl-1-[(2′S-dibenzylamino-3′-phenyl)prop-1′-yl]-2-oxoazetidine]","Binding hCB2 (%), inhibition of specific binding","[1]; 10 μM, radioligand [3H]WIN 55212-2",did not show significant affinity
same,inhibition at 10 µM,"[1]; radioligand [3H]WIN 55212-2, read-out: Binding hCB2 (%), inhibition of specific binding",7.3 ± 0.3%
same,"NTG-induced mechanical hypersensitivity, male mice","[2]; 30 mg/kg i.p., 60 min post-administration (only this dose and time)",significantly blocked
same,"NTG-induced mechanical hypersensitivity, female mice","[2]; 10 and 30 mg/kg i.p., significant at 30 min, lasting even after 120 min",fully blocked; also recorded: significantly reduces the hypersensitivity threshold induced by NTG
same,"Binding hM3 (%), inhibition of specific binding",[3]; 10 μM,did not show significant affinity
same,inhibition at 10 µM,"[3]; read-out: Binding hM3 (%), inhibition of specific binding",-4.1 ± 3.1%
